According to article PMC8427694, “The Herbal Compound Thymol Targets Multiple Salmonella Typhimurium Virulence Factors for Lon Protease Degradation” (Frontiers in Pharmacology, 2021):

Key:
Format in all cases: cell-based
GST-SipA27-270 [1] = molecular target: T1, GST-SipA27-270 (Salmonella enterica, UniProt E1WAC6); test: circular dichroism of purified protein from thymol-exposed cells; conditions: thymol present in E. coli culture during expression; protein 7.9 uM in PBS, 25 °C
T1 construct: gene sipA

GST-SipA497-669 [2] = molecular target: T2, GST-SipA497-669 (Salmonella enterica, UniProt E1WAC6); test: as above; conditions: thymol present in E. coli culture during expression; protein 7.3 uM in PBS, 25 °C
T2 construct: gene sipA; residues 497-669 (actin nucleation domain), N-terminal GST (pGEX-6p-1) kept, expressed in E. coli BL21(DE3), glutathione-Sepharose purified

GST-SipA497-669 [3] = molecular target: T2, GST-SipA497-669; test: click chemistry labelling, in-gel fluorescence; conditions: covalent (suggested; survives SDS and 100 °C); labelled compound; compound added to E. coli culture during expression, 20 °C, 16 h; possibly a cellular derivative binds
GST-SipA27-270 [4] = molecular target: T1, GST-SipA27-270; test: click chemistry labelling, in-gel fluorescence; conditions: covalent (suggested; survives SDS and 100 °C); labelled compound; compound added to E. coli culture during expression, 20 °C, 16 h; possibly a cellular derivative binds

T1 sequence (E1WAC6 27-270): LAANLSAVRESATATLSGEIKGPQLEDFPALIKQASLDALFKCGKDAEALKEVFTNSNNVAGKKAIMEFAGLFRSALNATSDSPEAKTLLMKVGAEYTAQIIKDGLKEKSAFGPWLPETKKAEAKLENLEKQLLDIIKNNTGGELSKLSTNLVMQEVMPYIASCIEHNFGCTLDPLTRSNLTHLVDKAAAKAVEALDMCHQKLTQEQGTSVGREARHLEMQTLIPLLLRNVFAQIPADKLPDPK
T2 sequence (E1WAC6 497-669 limits assumed): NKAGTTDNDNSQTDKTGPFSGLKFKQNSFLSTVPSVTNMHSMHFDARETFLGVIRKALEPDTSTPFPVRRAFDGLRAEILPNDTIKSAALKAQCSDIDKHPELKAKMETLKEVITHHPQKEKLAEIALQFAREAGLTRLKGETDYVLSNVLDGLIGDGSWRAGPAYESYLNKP

SMILES | circular dichroism of purified protein from thymol-exposed cells (GST-SipA27-270 [1]) | circular dichroism of purified protein from thymol-exposed cells (GST-SipA497-669 [2]) | click chemistry labelling, in-gel fluorescence (GST-SipA497-669 [3]) | click chemistry labelling, in-gel fluorescence (GST-SipA27-270 [4])
Cc1ccc(C(C)C)c(O)c1 [thymol] | proteins purified from cells treated with thymol exhibited significant changes in their CD spectra | proteins purified from cells treated with thymol exhibited significant changes in their CD spectra |  | 
C#CCOc1cc(C)ccc1C(C)C [alkyne-thymol] |  |  | Fluorescence signals were detected only in samples receiving alkyne-thymol | Fluorescence signals were detected only in samples receiving alkyne-thymol
